# Data from patent publication US20240327408A1, “COMPOUNDS CONTAINING TETRAHYDRONAPHTHYRIDINONE OR TETRAHYDROPYRIDOPYRIMIDINONE SKELETON, PREPARATION METHOD THEREFOR AND PHARMACEUTICAL USE THEREOF” (CHINA PHARMACEUTICAL UNIVERSITY, priority 2021, published 2024).
# What was measured:
# MV4; 11 cells = experiment: inhibiting the growth of MV4; 11 cells; format: cell-based; settings: Homo sapiens
# [1] = tested on: xenograft solid tumor models such as colon cancer, breast cancer, and brain tumors; settings: Oncotarget 2016, 7, 74380-74392; cited from earlier work
# hClpP = target: T1, hClpP (Homo sapiens, UniProt Q16740); experiment: activating ClpP hydrolysis of FITC-casein (fluorescence kinetic detection); format: biochemical; settings: hClpP 1 μM, FITC-Casein 4 μM, 37° C.
# T1 construct: made in house
# How it was run: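 hClpP at 1 μM final preincubated with compounds (assay-buffer dilutions 200 μM–2 nM, before mixing) 30 min at 37 °C, then 4 μM final FITC-casein added. Fluorescence read kinetically at 37 °C every 1 min for 15 min, duplicate wells.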
# T1 sequence (Q16740 57-277): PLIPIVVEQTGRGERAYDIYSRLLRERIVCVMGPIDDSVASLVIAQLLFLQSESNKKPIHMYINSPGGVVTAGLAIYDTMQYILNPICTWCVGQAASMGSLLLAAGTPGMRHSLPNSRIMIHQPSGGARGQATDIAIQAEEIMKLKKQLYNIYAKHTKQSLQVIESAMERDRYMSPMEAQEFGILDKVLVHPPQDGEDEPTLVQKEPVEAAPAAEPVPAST
smiles,measurement,setting,value
"Cc1ccccc1CN1C(=O)C2=C(CCN(Cc3ccccc3)C2)N2CCN=C12 [ONC201, reference compound]",IC50,MV4; 11 cells,100 to 10000 nM
same,tumor regression in xenograft solid tumor models,[1],cause tumor regression
"CCc1ccc(Cn2c(=O)c3c(c4cccnc42)CCN(Cc2cccc(F)c2)C3)cc1 [Compound I-95, 6-(4-ethylbenzyl)-3-(3-fluorobenzyl)-2,3,4,6-tetrahydropyrido[3,4-c][1,8]naphthyridine-5-(1H)-one]",EC50,hClpP,< 1000 nM
same,IC50,MV4; 11 cells,< 1000 nM
"Cc1ccc(Cn2c(=O)c3c(c4cccnc42)CCN(Cc2cccc(F)c2)C3)cc1 [Compound I-93, 6-(4-methylbenzyl)-3-(3-fluorobenzyl)-2,3,4,6-tetrahydropyrido[3,4-c][1,8]naphthyridine-5-(1H)-one]",EC50,hClpP,< 1000 nM
same,IC50,MV4; 11 cells,< 1000 nM
"O=c1c2c(c3cccnc3n1Cc1ccccc1)CCN(Cc1ccccn1)C2 [Compound I-27, 6-benzyl-3-(pyridin-2-ylmethyl)-2,3,4,6-tetrahydropyrido[3,4-c][1,8]naphthyridine-5-(1H)-one]",EC50,hClpP,10000 to 100000 nM
same,IC50,MV4; 11 cells,1000 to 10000 nM
"O=c1c2c(c3sccc3n1Cc1ccc(C(F)(F)F)cc1)CCN(Cc1ccccc1)C2 [Compound I-103, 7-benzyl-4-(4-trifluoromethylbenzyl)-6,7,8,9-tetrahydrothieno[3,2-C][2,7]naphthyridine-5(4H)-one]",EC50,hClpP,< 1000 nM
same,IC50,MV4; 11 cells,< 1000 nM
"N#Cc1cccc(CN2CCc3c(c(=O)n(Cc4ccccc4)c4nccn34)C2)c1 [Compound I-111, 7-(3-cyanobenzyl)-4-benzyl-6,7,8,9-tetrahydroimidazo[1,2-a]pyrido[3,4-e]pyrimidine-5(4H)-one]",EC50,hClpP,< 1000 nM
same,IC50,MV4; 11 cells,< 1000 nM
"COc1ccc(Cn2c(=O)c3c(c4cccnc42)CCN(Cc2cccc(F)c2)C3)cc1 [Compound I-99, 6-(4-methoxybenzyl)-3-(3-fluorobenzyl)-2,3,4,6-tetrahydropyrido[3,4-c][1,8]naphthyridine-5-(1H)-one]",EC50,hClpP,< 1000 nM
same,IC50,MV4; 11 cells,< 1000 nM
"CCc1ccc(Cn2c(=O)c3c(n4ccnc24)CCN(Cc2cccc(C#N)c2)C3)cc1 [Compound I-141, 7-(3-cyanobenzyl)-4-(4-ethylbenzyl)-6,7,8,9-tetrahydroimidazo[1,2-a]pyrido[3,4-e]pyrimidine-5(4H)-one]",EC50,hClpP,< 1000 nM
same,IC50,MV4; 11 cells,< 1000 nM
"O=c1c2c(n3ccnc3n1Cc1ccc(F)cc1F)CCN(Cc1ccccc1)C2 [Compound I-122, 7-benzyl-4-(2,4-difluorobenzyl)-6,7,8,9-tetrahydroimidazo[1,2-a]pyrido[3,4-e]pyrimidine-5(4H)-one]",EC50,hClpP,< 1000 nM
same,IC50,MV4; 11 cells,< 1000 nM
"O=c1c2c(c3cccnc3n1Cc1ccccc1Cl)CCN(Cc1ccccc1)C2 [Compound I-41, 3-benzyl-6-(2-chlorobenzyl)-2,3,4,6-tetrahydropyrido[3,4-c][1,8]naphthyridine-5-(1H)-one]",EC50,hClpP,1000 to 10000 nM
same,IC50,MV4; 11 cells,< 1000 nM
"O=c1c2c(n3ccnc3n1Cc1ccc3c(c1)OCCO3)CCN(Cc1cccc(Cl)c1)C2 [Compound I-148, 7-(3-chlorobenzyl)-4-((2,3-dihydro[1,4]benzodioxin-6-yl)methyl)-6,7,8,9-tetrahydroimidazo[1,2-a]pyrido[3,4-e]pyrimidine-5(4H)-one]",EC50,hClpP,1000 to 10000 nM
same,IC50,MV4; 11 cells,1000 to 10000 nM
"N#Cc1cccc(CN2CCc3c(c(=O)n(Cc4ccc(F)cc4)c4ncccc34)C2)c1 [Compound I-84, 6-(4-fluorobenzyl)-3-(3-cyanobenzyl)-2,3,4,6-tetrahydropyrido[3,4-c][1,8]naphthyridine-5-(1H)-one]",EC50,hClpP,< 1000 nM
same,IC50,MV4; 11 cells,< 1000 nM
